Test system: left insula/frontal operculum of ADHD and control groups
Assay: fMRI during N-Back working memory and sustained attention task, on and off medication
Assay type: in vivo
Settings: 1-B, 2-B and 3-B N-Back conditions, 0.2 mg/kg and 0.4 mg/kg MP compared with placebo
Source text: A General Electric Signa EXCITE 3.0 Tesla MRI scanner is used for implementing the present invention although any of a number of commercial MRI scanners having 3.0 or 1.5 Tesla fields could be used. Typical imaging parameters involve, for example, the acquisition of 36 contiguous axial slices that cover the entire brain (typically 4 mm thick) using a blipped gradient-echo, echoplanar pulse sequence (echo time (TE)=25 msec; interscan period (TR)=[…]; field of view (FOV)=24 cm; 64×64 voxel matrix; 3.75 mm.×3.75 mm in-plane resolution). High resolution (124 axial slices) spoiled GRASS (gradient-recalled at steady-state) anatomic images [TE=3.9 ms; TR (repetition time)=9.5 ms, 120 flip angle, NEX (number of excitations)=1, slice thickness=1.0 mm, FOV=24 cm, matrix size=256×224] are acquired prior to functional imaging for anatomical localization of functional activation and co-registration. Stimulus presentation and general communication to the patient in the MR scanner is accomplished with stereo audio headphones and computer generated images fed into a digital LCD projector which are back projected to the subject and viewed by the patient through prismatic glasses. Subject responses are recorded on a small hand held keyboard or response device including multiple response buttons. […]

COC(=O)C(c1ccccc1)C1CCCCN1 (stereo not shown) [MP, Methylphenidate]
Group differences (ADHD vs control) in brain activation (percent MR signal intensity): tended to disappear
